Two molecules from patent US10464947B2 (Incyte Corporation, priority 2013, dated 2019) can be followed below.

The target of experiment [1] is BRD4-BD1 (Homo sapiens (Human), UniProt O60885). As to the kind of experiment: BRD4 AlphaScreen Assay (Example A2), BRD4-BD1. The format is binding. Conditions: read-out: BRD4 BD-1 enzyme IC50. The method, then:
(§1) BRD4-BD1 and BRD4-BD2 assays were conducted in white 384-well polystyrene plate in a final volume of 40 μL for BD1 and 60 μL for BD2. Inhibitors were first serially diluted in DMSO and added to the plate wells before the addition of other reaction components. […] The assays were carried out at room temperature in the assay buffer (50 mM Tris-HCl, pH 7.5, 0.01% Tween-20, 0.01% BSA, 5 mM DTT), containing 50 nM Biotin-labeled tetra-acetylated histone H4 peptide (H4Ac4) and BRD4-BD1 or BRD4-BD2 protein at concentration less than 1 nM. […] After plate sealing, the plate was incubated in the dark at room temperature for 75 min. before reading on a PHERAstar FS plate reader (BMG Labtech). IC50 determination was performed by fitting the curve of percent control activity versus the log of the inhibitor concentration using the GraphPad Prism 5.0 software.
Background: Alpha assays give light when donor and acceptor beads are brought close together.

Experiment [2] addresses BRD4-BD2 (Homo sapiens (Human), UniProt O60885). The experiment is described as follows: BRD4 AlphaScreen Assay (Example A2), BRD4-BD2. The format is binding. The conditions noted are these: read-out: BRD4 BD-2 enzyme IC50. The method, then: as §1
Experiment [3] has as its system KMS.12.BM cells. As to the kind of experiment: KMS.12.BM Cell Viability Assay (Example B1). The format is cell-based, human. The conditions noted are these: Homo sapiens, 72 h, 3 days, Cell Titer-GLO, read-out: KMS cellular IC50. The essentials: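 KMS.12.BM human myeloma cells, 5000 cells/well in RPMI with 10% FBS, exposed to a compound concentration range for 3 days. Viable cells measured by ATP-based Cell Titer-GLO luminescence after 10 min at room temperature.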

Experiment [4] concerns C-myc in KMS.12.BM cells. As to the kind of experiment: KMS.12.BM C-Myc ELISA Assay (Example C1). The format is cell-based. Conditions: Homo sapiens, 2 h.

In general, IC50 refers to the concentration needed to halve the response being measured. For the molecule `Cc1noc(C)c1-c1ccc2[nH]c(=O)n3c2c1OCC3c1cccnc1C(=O)NCCO` (single isomer, unassigned) [Example 135, 3-[7-(3,5-Dimethylisoxazol-4-yl)-2-oxo-1,2,4,5-tetrahydroimidazo[1,5,4-de][1,4]benzoxazin-4-yl]-N-(2-hydroxyethyl)pyridine-2-carboxamide], the IC50 in experiment [1] was under 0.1 µM; in experiment [2] it was under 0.1 µM; in experiment [3] it was under 1 µM; in experiment [4] it was under 1 µM.
Consider `Cc1noc(C)c1-c1ccc2[nH]c(=O)n3c2c1OCC3c1cccnc1C(=O)NCC(F)(F)F` (single isomer, unassigned) [Example 136, 3-[7-(3,5-dimethylisoxazol-4-yl)-2-oxo-1,2,4,5-tetrahydroimidazo[1,5,4-de][1,4]benzoxazin-4-yl]-N-(2,2,2-trifluoroethyl)pyridine-2-carboxamide], for which the IC50 in experiment [1] is under 0.1 µM; in experiment [2] it was under 0.1 µM; in experiment [3], under 1 µM; in experiment [4] it was under 1 µM.
